Measurements as given in PubChem BioAssay (NCI).
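A five-concentration, 48-hour dose response in 96-well plates underlies each endpoint, interpolated linearly between surrounding concentrations. Here, GI50 denotes the concentration required for 50% inhibition of growth. TGI denotes the concentration required for complete inhibition of growth.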

Assays:
Test in all cases: DTP human tumour cell line panel, 48 h
U251 CNS = system: U251 CNS
HOP-92 NSCLC = system: HOP-92 NSCLC
OVCAR-8 ovarian = system: OVCAR-8 ovarian
MALME-3M melanoma = system: MALME-3M melanoma
UACC-257 melanoma = system: UACC-257 melanoma
LOX IMVI melanoma = system: LOX IMVI melanoma
SNB-75 CNS = system: SNB-75 CNS
SNB-19 CNS = system: SNB-19 CNS
NCI-H226 lung = system: NCI-H226 lung
DMS 114 small cell lung = system: DMS 114 small cell lung

SMILES | GI50 (U251 CNS) | TGI (U251 CNS) | GI50 (HOP-92 NSCLC) | TGI (HOP-92 NSCLC) | GI50 (OVCAR-8 ovarian) | TGI (OVCAR-8 ovarian) | GI50 (MALME-3M melanoma) | TGI (MALME-3M melanoma) | GI50 (UACC-257 melanoma) | TGI (UACC-257 melanoma) | GI50 (LOX IMVI melanoma) | TGI (LOX IMVI melanoma) | GI50 (SNB-75 CNS) | TGI (SNB-75 CNS) | GI50 (SNB-19 CNS) | TGI (SNB-19 CNS) | GI50 (NCI-H226 lung) | TGI (NCI-H226 lung) | TGI (DMS 114 small cell lung)
O=C(CC12CC3CC(CC(C3)C1)C2)NCCOCCOCCOCCNC(=O)c1cc2c(o1)C(=O)c1ccccc1C2=O | 1.53 µM | 3.09 µM | 2.45 µM | 7.3 µM | 1.15 µM | 10.6 µM | 0.157 µM | 0.328 µM | 1.22 µM | 2.52 µM | 0.712 µM | 2.4 µM | 2.02 µM | 3.51 µM | 1.32 µM | 7.63 µM | 1.75 µM | 4 µM | 
COc1cc2c(Oc3ccc4[nH]c(C)cc4c3F)ccnc2cc1OCC1(N)CC1 | 0.674 µM | 7.15 µM | 1.03 µM | 7.11 µM | 2.92 µM | > 100 µM | 1.21 µM | 3.03 µM | 1.67 µM | 3.63 µM | 1.26 µM | 3.2 µM | 0.651 µM | 2.46 µM | 1.64 µM | 28.1 µM | 0.894 µM | 14.9 µM | 
Cc1cc2cc3c(C)cc(=O)oc3c(C)c2o1 |  | > 100 µM |  | > 100 µM |  | > 100 µM |  | > 100 µM |  | > 100 µM |  | > 100 µM |  | > 100 µM |  | > 100 µM |  | > 100 µM | 
CC1(C)CC(n2cnc(-c3ccc(F)cc3)c2-c2ccnc(N)n2)CC(C)(C)N1 | > 20.1 µM | > 25 µM | 7.19 µM | > 25 µM | 15.6 µM | > 25 µM | > 25 µM | > 25 µM | > 25 µM | > 25 µM | > 19.7 µM | > 25 µM | > 16.5 µM | > 25 µM | > 25 µM | > 25 µM | > 13.9 µM | > 25 µM | 
c1ccc2c(c1)-c1ccccc1C2N1CC2CCC(CC2)C1 |  | 30.9 µM |  | 48.5 µM |  | > 100 µM |  | 27.6 µM |  | 47.1 µM |  | 40.5 µM |  | 61.4 µM |  | 92.4 µM |  | 41.5 µM | 
O=c1[nH]ccc2nc(N3CCC(O)CC3)nc(Nc3cccc(C(F)(F)F)c3)c12 | 6.15 µM | > 100 µM | > 100 µM | > 100 µM | 3.29 µM | 40.6 µM | 2.61 µM | 7.87 µM | 4.24 µM | 13 µM | 1.42 µM | 16.6 µM | 5.76 µM | 82.1 µM | 18.1 µM | > 100 µM | 3.2 µM | 17.7 µM | 
C=CCN1C=CC(=O)[C@H](O[Si](C)(C)C(C)(C)C)[C@@H]1/C=C/c1ccccc1 | 12.4 µM | 25.2 µM | 7.05 µM | 21.1 µM | 30.6 µM | > 100 µM | 17.3 µM | 34.3 µM | 17.9 µM | 37.2 µM | 13.1 µM | 26.4 µM | 10.5 µM | 22.7 µM | 20.7 µM | 35.3 µM | 17.9 µM | 36.9 µM | 
CSc1nc(NC(=O)O)c(N(C(C)=O)C(=O)O)c(=O)n1C |  | > 100 µM |  | > 100 µM |  | > 100 µM |  | > 100 µM |  | > 100 µM |  | > 100 µM |  |  |  | > 100 µM |  | > 100 µM | > 100 µM
CN1CCCCCC(=N\O)/C(=N/O)CCCCC1 |  | > 100 µM |  | > 100 µM |  | > 100 µM |  | > 100 µM |  | > 100 µM |  | > 100 µM |  | > 100 µM |  | > 100 µM |  | > 100 µM | 
Cc1cc(-c2nnc(N)nc2-c2ccc(F)cc2)cc(Cl)n1 | > 100 µM | > 100 µM | 11.5 µM | > 100 µM | > 100 µM | > 100 µM | > 100 µM | > 100 µM | 78.9 µM | > 100 µM | > 100 µM | > 100 µM | 54.3 µM | > 100 µM | > 100 µM | > 100 µM | 46.9 µM | > 100 µM | 
Cc1cccc(Cl)c1NC(=O)/C=C/c1ccccc1 |  | > 100 µM |  | > 100 µM |  | > 100 µM |  | > 100 µM |  | > 100 µM |  | > 100 µM |  | 87.1 µM |  | > 100 µM |  | > 100 µM | 
Cc1ccc(-c2nc(N)nc3c2nnn3Cc2cccc(CO[C@H]3CCOC3)n2)o1 | > 100 µM | > 100 µM | > 100 µM | > 100 µM | > 100 µM | > 100 µM | > 100 µM | > 100 µM | > 100 µM | > 100 µM | > 100 µM | > 100 µM | 41.5 µM | > 100 µM | > 100 µM | > 100 µM | > 100 µM | > 100 µM | 
COc1cc(C(=O)C/C(CCC(=O)Nc2ccc(Cl)cc2C)=N/NC(=O)C(N)=O)ccc1O |  | > 100 µM |  | > 100 µM |  | > 100 µM |  | > 100 µM |  | > 100 µM |  | > 100 µM |  |  |  | > 100 µM |  | > 100 µM | > 100 µM
COc1cc(C(c2cc3c(cc2O)OCO3)N2CCCCC2)cc(OC)c1OC (stereo unspecified) |  | 30.2 µM |  | 23.1 µM |  | 28.1 µM |  | 26.1 µM |  | 25.7 µM |  | 28.4 µM |  | 33.5 µM |  | 46.9 µM |  | 41.6 µM | 
NC(=N\N=C/c1cccc([N+](=O)[O-])c1)/C(N)=N\N=C/c1cccc([N+](=O)[O-])c1 | > 100 µM | > 100 µM | > 100 µM | > 100 µM | > 100 µM | > 100 µM | > 100 µM | > 100 µM | > 100 µM | > 100 µM | > 100 µM | > 100 µM | > 100 µM | > 100 µM | > 100 µM | > 100 µM | > 100 µM | > 100 µM | 
Cc1nc2cc(N)c(F)cc2[nH]1 |  | > 100 µM |  | > 100 µM |  | > 100 µM |  | > 100 µM |  | > 100 µM |  | > 100 µM |  |  |  | > 100 µM |  | > 100 µM | > 100 µM
